Laboratory results from patent US9050269B2, “Protection of virus particles from phagocytosis by expression of CD47” (priority 2009, dated 2015).

Experiments:
[1] = system: THP-1 macrophages; experiment: SHP-1 inhibitor effect on phagocytosis of IgG-opsonized particles; type: cell-based, human
Method: For phagocytosis assays with CD47 attached particles at 100 nm to 1.1 μm diameter were IgG-opsonizied. THP-1 macrophage, PMA activated were treated with 0-0.5 μM NSC-87877 an SHP-1 Inhibitor (gift from Frank L. Conlon) 5 minutes prior to the addition of IgG-opsonizied particles. Phagocytosis assay occurred at 37° C. for 45 minutes and then fixed for 5 minutes with 5% formaldehyde as described for the phagocytosis assay (Fisher Scientific).
In order to specifically block SHP-1, an inhibitor NSC-87877 was used with a reported high specificity to SHP-1 (Chen et al., 2006, Mol. Pharmacol. 70(2):562-70; Langdon et al., 2007, Development 134(22):4119-30). […] The uptake of these particles was measured as the number of particles ingested per phagocyte.

[2] = target: SHP-1 (Homo sapiens, UniProt P29350); details: reported, Chen et al., 2006; cited from earlier work
Sequence of SHP-1 (P29350 whole entry): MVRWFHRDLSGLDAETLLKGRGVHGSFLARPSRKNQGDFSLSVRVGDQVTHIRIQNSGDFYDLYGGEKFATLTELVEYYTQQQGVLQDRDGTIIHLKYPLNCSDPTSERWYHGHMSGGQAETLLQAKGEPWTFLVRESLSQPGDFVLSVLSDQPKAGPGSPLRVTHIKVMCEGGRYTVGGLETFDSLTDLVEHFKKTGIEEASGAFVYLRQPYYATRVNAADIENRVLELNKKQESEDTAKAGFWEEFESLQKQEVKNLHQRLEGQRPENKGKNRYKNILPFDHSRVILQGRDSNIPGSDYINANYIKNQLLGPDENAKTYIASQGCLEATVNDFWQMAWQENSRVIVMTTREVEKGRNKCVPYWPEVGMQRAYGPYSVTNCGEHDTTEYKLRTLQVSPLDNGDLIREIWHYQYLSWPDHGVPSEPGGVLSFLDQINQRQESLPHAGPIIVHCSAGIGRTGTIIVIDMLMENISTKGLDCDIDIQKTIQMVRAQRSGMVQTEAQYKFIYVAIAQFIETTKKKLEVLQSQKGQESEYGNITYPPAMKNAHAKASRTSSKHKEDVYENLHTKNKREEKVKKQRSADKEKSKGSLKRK

[3] = system: A549 human lung epithelial cells; type: cell-based; details: blebbistatin at various concentrations; MOI 270
[4] = system: THP-1 macrophages; type: cell-based, human
[5] = system: THP-1 macrophages; experiment: Phagocytosis of IgG-opsonized streptavidin beads with or without hCD47 by THP-1 macrophages; type: cell-based, human
Method: The extracellular immunoglobulin-like domains of human CD47 (hCD47) was recombinantly expressed with a spacer domain (Brown et al., 1994, Protein Eng. 7:515-21; Brown et al., 1998, J. Exp. Med. 188:2083-90) plus a C-terminal biotinylation site. […] The beads were opsonized by pretreatment with anti-streptavidin to again induce FcR-mediated phagocytosis (for 45 minutes at 37° C.), and non-engulfed beads were detected with a flourescein anti-Fc against the IgG-opsonin. The number of adherent IgG-opsonized beads per phagocyte was independent of hCD47 (not shown).
Human CD47 gave a Ki at high opsonin of 20 CD47/μm^2, which appears ˜10-fold less than normal human RBC densities of CD47. […] A higher baseline level of bead phagocytosis versus RBCs could redirect the fact that stiffer targets are more readily engulfed (Beningo et al., 2002, J. Cell Sci. 115:849-856).
For phagocytosis assays, macrophages were plated in 4 cm^2, or 2 cm^2 Lab-Tek II Chambered Coverglass (Nalge Nunc International, Naperville, Ill.) at 1.5×10^5/cm^2. Streptavidin polystyrene beads of different radius: 3.5 μm, 1.1 μm, 160 nm (Spherotech) and 100 nm (Ademtech) were added to macrophages at a ratio of 2:1, 20:1, 277:1, and 2206:1 respectively and incubate at 37° C. for 45 min. […] Non-phagocytosed beads were washed with PBS. Cells were fixed with 5% formaldehyde (Fisher Scientific) for 5 minutes, followed by immediate replacement with PBS. For differentiation of non-internalized beads, beads were labeled with a primary antibody, rabbit anti-streptavidin (Sigma) at 1:1000 in PBS for 20 min at 25° C. A second antibody, anti-rabbit R-PE (Sigma) was added at 1:1000 in PBS to the cells and incubated for an additional 20 minutes at 25° C. Cells were then washed with PBS/0.4% BSA and then quantified by light and fluorescent microscopy. At least 200 cells were scored per well and experiments were repeated at least three times. […]
Beads were opsonized at saturating densities of IgG, and over a 20-fold range of CD47 densities, the number of internalized beads per THP-1 was measured. […]

[6] = system: THP-1 macrophages; experiment: Phagocytosis of IgG-opsonized sheep RBCs by THP-1 macrophages; type: cell-based, human
From the text: Phagocytosis by the human-derived THP-1 macrophages of IgG-opsonized RBCs was studied by imaging in DIC microscopy. […] RBC membranes were prelabeled with PKH26, and non-engulfed RBCs were labeled with a fluorescein-labeled antibody against the Fc of the IgG-opsonin.
To more directly assess the function of the IIA isoform, the effects of both knockdown and overexpression were functionally studied.

[7] = system: non-muscle myosin IIA at the phagocytic synapse of THP-1 macrophages; experiment: Protein localization to the phagocytic synapse (immunofluorescence); type: cell-based, human; details: blebbistatin 50 μM, 10 min pre-incubation
Method: […] Opsonized beads of different sizes were added to THP-1 cells, PMA treated and immediately placed at 4° C. for 10 min to synchronize phagocytosis. […] For studies involving blebbistatin (EMD Biosciences), macrophages were treated for 10 min at 4° C. prior to temperature increase to 37° C. or for 45 min and 37° C. Macrophages treated with DMSO were used to verify no solvent effects.
Immunostaining was performed by permeabilization with 0.1% Triton X-100 in PBS for 20 min before blocking for 1 h with 5% BSA in PBS. Staining with primary antibodies was carried out for 1 h at room temperature in PBS. Following washing, samples were incubated with appropriate PE-conjugated secondary antibodies (1:1000). To label cytoskeletal proteins at the phagocytic synapse, primary Ab's prepared with Zenon Alexa 488 or Zenon Alexa 647 Fab labeling kits (Invitrogen) labeled for 45 min at room temperature. Cells were immediately fixed using 5% formaldehyde for 20 minutes and washed with PBS. Samples were analyzed by differential interference contrast (DIC) and fluorescence microscopy.
Images were acquired with an inverted microscope (Olympus; IX71) with a 60× (oil, 1.4 NA) objective using a Cascade CCD camera (Photometrics, Tuscon, Ariz.). Image acquisition was performed with Image Pro software (Media Cybernetics, Silver Spring, Md.). […]

SMILES: O=S(=O)(O)c1ccc2cc(N=Nc3cc(S(=O)(=O)O)c4cccnc4c3O)ccc2c1 [NSC-87877]
- particles ingested per phagocyte, hCD47 particles ([1]; 62.5 nM NSC-87877, 100 nm IgG-opsonized particles with hCD47): an increase of ingested particles
- particles ingested per phagocyte, beads without hCD47 ([1]; 62.5 nM NSC-87877, 100 nm IgG-opsonized particles without hCD47): no statistical difference
- particles ingested per phagocyte, hCD47 particles ([1]; NSC-87877, 1.1 μm IgG-opsonized particles with hCD47): increase in uptake comparable to uncoated IgG-opsonizied particles
- IC50 [2]: 500 nM

SMILES: Cc1ccc2c(c1)C(=O)C1(O)CCN(c3ccccc3)C1=N2 (stereo not drawn) [blebbistatin]
- lentivirus transduction in A549 cells [3]: no effect
- transduction of control lentiviral particles ([4]; 50 μM Blebbistatin vs DMSO): inhibited transduction
- transduction of overexpressed hCD47 lentiviral particles ([4]; 50 μM Blebbistatin vs DMSO): no changes were observed
- transduction efficiency of control lentivirus ([4]; blebbistatin at various concentrations, MOI 700): dose dependent response
- uptake of IgG-opsonized particles by THP-1 ([5]; 50 μM blebbistatin, 100 nm particles, vs DMSO): decrease in uptake
- uptake of IgG-opsonized particles by THP-1 ([5]; blebbistatin, 1.1 μm particles): comparable results
- phagocytosis of CD47-null beads ([5]; blebbistatin, uncoated approximately 2.1 μm beads): inhibited phagocytosis of CD47-null beads to a level similar as hCD47 beads
- inhibition of ShRBC phagocytosis by GFP-NMM IIA expressing THP-1 ([6]; 5 μM blebbistatin): ~50%
- engulfment of sheep RBCs by THP-1 macrophages ([6]; compared with CD47 on human RBCs): inhibited
- Ki ([6]; dose-response, sheep RBCs engulfed by THP-1 macrophages, read-out: Ki-blebb for blebbistatin inhibition of phagocytosis): 5000 nM
- enrichment of NMM IIA at synaptic contacts with sheep RBC targets [7]: inhibited enrichment of NMM IIA
